Test results from patent US8080567B2, “EP2 receptor agonists” (Asterand UK Limited, priority 2005, dated 2011).

Legend:
human EP2 receptor = biological target: T1, human EP2 receptor (Homo sapiens, UniProt P43116); assay: Binding ability to human EP receptors, [3H]PGE2 displacement, EP2; conditions: membranes expressing human EP2 receptor; [3H]PGE2 3 nM; Cheng-Prusoff; read-out: pKi (M) EP2 (converted)
T1 construct: expressed in transfected cells; HEK-293 is named only for the cAMP assay
Description: (§1) Membranes were prepared from cells stably transfected with human EP receptor cDNA. In brief, cells were cultured to confluency, scraped from culture flasks, and centrifuged (800 g, 8 minutes, 4° C.). Cells were twice washed in ice cold homogenisation buffer containing 10 mM Tris-HCl, 1 mM EDTA.2Na, 250 mM sucrose, 1 mM PMSF, 0.3 mM indomethacin, pH 7.4, homogenised and re-centrifuged as before. The supernatant was stored on ice and pellets re-homogenised and re-spun. Supernatants were pooled and centrifuged at 40000 g, 10 minutes, 4° C. Resultant membrane pellets were stored at −80° C. until use.
(§2) For assay, membranes expressing human EP4, EP3, EP2 or EP1 receptors were incubated in Millipore (MHVBN45) plates containing assay buffer, radiolabelled [^3H]PGE2 and 0.1 to 10 000 nM concentrations of compounds. Incubations were performed at suitable temperatures and for suitable times to allow equilibrium to be reached. Non-specific binding was determined in the presence of 10 uM PGE2. Bound and free radiolabel was separated by vacuum manifold filtration using appropriate wash buffers, and bound radiolabel was determined by scintillation counting. Constituents of each of the buffers are included in table 1 below.
(§3) The affinity or pKi of each compound for each receptor was calculated from the concentration causing 50% radioligand displacement (IC50) using the Cheng-Prusoff equation: […]
(§4) This approach follows that set out in Kenakin, T. P., Pharmacologic analysis of drug receptor interaction. Raven Press, New York, 2nd edition.

human EP4 receptor = biological target: T2, human EP4 receptor (Homo sapiens, UniProt P35408); assay: Binding ability to human EP receptors, [3H]PGE2 displacement, EP4; conditions: membranes expressing human EP4 receptor; [3H]PGE2 1 nM; Cheng-Prusoff; read-out: pKi (M) EP4 (converted)
T2 construct: expressed in transfected cells; HEK-293 is named only for the cAMP assay
T2 sequence (P35408 whole entry): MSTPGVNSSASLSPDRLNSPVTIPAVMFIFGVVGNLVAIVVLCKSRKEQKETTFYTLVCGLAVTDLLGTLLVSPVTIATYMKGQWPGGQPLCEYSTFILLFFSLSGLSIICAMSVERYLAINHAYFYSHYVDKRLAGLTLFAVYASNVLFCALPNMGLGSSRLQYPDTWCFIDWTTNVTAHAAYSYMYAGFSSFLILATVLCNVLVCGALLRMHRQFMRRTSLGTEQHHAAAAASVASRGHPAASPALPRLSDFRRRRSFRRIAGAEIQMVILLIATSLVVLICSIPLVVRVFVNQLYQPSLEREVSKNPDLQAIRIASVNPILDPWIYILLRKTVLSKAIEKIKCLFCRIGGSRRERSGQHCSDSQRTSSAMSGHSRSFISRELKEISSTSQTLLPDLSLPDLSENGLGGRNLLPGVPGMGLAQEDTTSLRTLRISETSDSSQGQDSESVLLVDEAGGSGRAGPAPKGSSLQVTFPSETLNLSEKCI
Description: as §1, §2, §3, §4

T1 sequence (P43116 whole entry): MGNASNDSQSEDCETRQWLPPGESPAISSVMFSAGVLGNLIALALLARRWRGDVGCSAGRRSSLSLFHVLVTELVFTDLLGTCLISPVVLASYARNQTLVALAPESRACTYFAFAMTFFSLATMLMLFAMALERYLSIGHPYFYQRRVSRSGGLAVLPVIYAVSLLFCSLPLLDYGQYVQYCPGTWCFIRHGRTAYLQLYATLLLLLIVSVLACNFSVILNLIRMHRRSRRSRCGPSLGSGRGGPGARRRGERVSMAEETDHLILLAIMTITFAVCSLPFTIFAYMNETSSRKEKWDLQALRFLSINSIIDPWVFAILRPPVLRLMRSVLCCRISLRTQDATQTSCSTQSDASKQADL

| Compound | Ki (human EP2 receptor) | Ki (human EP4 receptor) |
| --- | --- | --- |
| O=C(O)C=Cc1cccc(-c2nc3cc(-c4ccccc4)ccc3o2)c1 [Compound 34, 3-[3-(5-Phenyl-benzoxazol-2-yl)-phenyl]-acrylic acid] | < 1e-06 M | > 1e-06 M |
| O=C(O)C=Cc1cccc(NC(=O)c2ccc(-c3ccccc3)o2)n1 [Compound 40, 3-{6-[(5-Phenyl-furan-2-carbonyl)-amino]-pyridin-2-yl}-acrylic acid] | < 1e-06 M | > 1e-06 M |
| O=C(O)C=Cc1cccc(NC(=O)c2ccc3oc4ccccc4c3c2)c1 [Compound 20, 3-{3-[(Dibenzofuran-2-carbonyl)-amino]-phenyl}-acrylic acid] | < 1e-07 M | > 1e-06 M |
| O=C(O)C=Cc1cccc(Sc2cccc(-c3ccccc3)n2)c1 [Compound 16, 3-[3-(6-Phenyl-pyridin-2-ylsulfanyl)-phenyl]-acrylic acid] | < 1e-06 M | > 1e-06 M |
| O=C(O)C=Cc1ccc(F)c(NC(=O)c2ccc(-c3ccccc3)o2)c1 [Compound 45, 3-{4-Fluoro-3-[(5-phenyl-furan-2-carbonyl)-amino]-phenyl}-acrylic acid] | < 1e-07 M | > 1e-06 M |
| O=C(O)C=Cc1cccc(NC(=O)c2ccc(Oc3ccccc3)o2)c1 [Compound 5, 3-{3-[(5-Phenoxy-furan-2-carbonyl)-amino]-phenyl}-acrylic acid] | < 1e-07 M | > 1e-06 M |
| O=C(O)C=Cc1cccc(CC(O)c2ccc(-c3ccccc3)o2)c1 (stereo not shown) [Compound 28, 3-{3-[2-Hydroxy-2-(5-phenyl-furan-2-yl)-ethyl]-phenyl}-acrylic acid] | < 1e-06 M | > 1e-06 M |

Other lines, results leading:

| Ki (human EP2 receptor) | Ki (human EP4 receptor) | Compound |
| --- | --- | --- |
| < 1e-07 M | > 1e-06 M | O=C(O)C=Cc1cccc(NC(=O)c2ccc(C(=O)c3ccccc3)o2)c1 [Compound 11, 3-{3-[(5-Benzoyl-furan-2-carbonyl)-amino]-phenyl}-acrylic acid] |
| < 1e-06 M | > 1e-06 M | O=C(O)C=Cc1cccc(C=Cc2ccc(-c3ccccc3)o2)c1 [Compound 29, 3-{3-[2-(5-Phenyl-furan-2-yl)-vinyl]-phenyl}-acrylic acid] |
| < 1e-08 M | > 1e-07 M | O=C(O)C=Cc1ccc(Cl)c(NC(=O)c2cc(-c3ccccc3)ccc2F)c1 [Compound 52, 3-{4-Chloro-3-[(4-fluoro-biphenyl-3-carbonyl)-amino]-phenyl}-acrylic acid] |
| < 1e-06 M | > 1e-06 M | N=C(Nc1cccc(C=CC(=O)O)c1)c1cc(-c2ccccc2)ccc1F [Compound 58, 3-{3-[(4-Fluoro-biphenyl-3-carboximidoyl)-amino]-phenyl}-acrylic acid] |
